Experimental findings from patent US10246469B2, “Biaryl kinase inhibitors” (BRISTOL-MYERS SQUIBB COMPANY, priority 2015, dated 2019) are described below.

The target of this experiment is T1, GST-Xa-hAAK1 (Homo sapiens, UniProt Q2M2I8).
T1 construct: GST (N); Factor Xa cleavage site (Xa) (internal); made in house
Description: AAK1 Kinase Assay. In kind it is biochemical. The settings on record: bacterially expressed GST-Xa-hAAK1 3.5 nM; ATP 22 μM; fluoresceinated peptide 1.5 μM; 3 hours at room temperature; Caliper LabChip 3000. Here is the method: The assays were performed in U-bottom 384-well plates. The final assay volume was 30 μl prepared from 15 μl additions of enzyme and substrates (fluoresceinated peptide (5-FAM)-Aha-[…]-NH2 and ATP) and test compounds in assay buffer (10 mM Tris-HCL pH 7.4, 10 mM MgCl2, 0.01% Tween-20 and 1.0 mM DTT). The reactions were initiated by the combination of bacterially expressed, GST-Xa-hAAK1 with substrates and test compounds. The reactions were incubated at room temperature for 3 hours and terminated by adding 60 μl of 35 mM EDTA buffer to each sample. The reactions were analyzed on the Caliper LabChip 3000 (Caliper, Hopkinton, Mass.) by electrophoretic separation of the fluorescent substrate and phosphorylated product. […] The final concentration of reagents in the assays are ATP, 22 μM; (5-FAM)-Aha-[…]-NH2, 1.5 μM; GST-Xa-hAAK1, 3.5 nM; and DMSO, 1.6%. […] Compounds were dissolved at 10 mM in dimethylsulfoxide (DMSO) and evaluated at eleven concentrations. IC50 values were derived by non-linear regression analysis.

Each structure is given as a SMILES string. pIC50: −log10 of the molar value.

The pIC50 is the IC50 on a negative log10 scale, so that one unit is a factor of ten.

T1 sequence (Q2M2I8 whole entry): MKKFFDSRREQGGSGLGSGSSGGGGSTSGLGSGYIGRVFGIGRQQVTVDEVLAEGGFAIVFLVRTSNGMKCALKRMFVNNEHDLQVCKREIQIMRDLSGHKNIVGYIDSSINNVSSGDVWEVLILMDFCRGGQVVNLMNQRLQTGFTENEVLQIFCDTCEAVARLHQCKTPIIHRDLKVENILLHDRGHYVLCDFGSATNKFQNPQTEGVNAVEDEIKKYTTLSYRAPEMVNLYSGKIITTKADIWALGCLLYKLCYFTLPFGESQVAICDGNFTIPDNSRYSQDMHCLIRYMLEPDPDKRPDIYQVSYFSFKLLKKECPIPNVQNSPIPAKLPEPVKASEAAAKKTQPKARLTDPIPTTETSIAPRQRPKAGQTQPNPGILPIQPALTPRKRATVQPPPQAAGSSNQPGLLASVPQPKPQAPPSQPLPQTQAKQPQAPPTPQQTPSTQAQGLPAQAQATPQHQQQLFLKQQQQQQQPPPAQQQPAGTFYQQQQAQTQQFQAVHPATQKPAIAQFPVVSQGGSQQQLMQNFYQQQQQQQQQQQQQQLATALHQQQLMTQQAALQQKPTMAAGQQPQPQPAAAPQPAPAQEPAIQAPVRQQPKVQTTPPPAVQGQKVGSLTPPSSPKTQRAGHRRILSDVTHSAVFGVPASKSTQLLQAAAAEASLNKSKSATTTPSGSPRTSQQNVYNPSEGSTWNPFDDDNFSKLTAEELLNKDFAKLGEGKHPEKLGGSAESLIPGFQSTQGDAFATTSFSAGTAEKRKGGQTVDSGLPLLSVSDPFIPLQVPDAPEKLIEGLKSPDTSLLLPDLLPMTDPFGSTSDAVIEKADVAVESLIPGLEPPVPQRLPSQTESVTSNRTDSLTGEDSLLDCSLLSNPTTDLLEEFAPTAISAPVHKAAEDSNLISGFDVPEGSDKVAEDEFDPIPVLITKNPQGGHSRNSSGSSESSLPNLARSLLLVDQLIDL

As to `CC(C)C[C@](C)(N)COc1ccc(-c2ccnc(Nc3nccs3)n2)cc1C(F)(F)F` [Example 371, (S)—N-(4-(4-((2-amino-2,4-dimethylpentyl)oxy)-3-(trifluoromethyl)phenyl)pyrimidin-2-yl)thiazol-2-amine], the pIC50 was 9.70.

With `Cc1csc(Nc2nccc(-c3ccc(OC[C@@](C)(N)CC(C)C)c(C(F)(F)F)c3)n2)n1` [Example 376, (S)—N-(4-(4-((2-amino-2,4-dimethylpentyl)oxy)-3-(trifluoromethyl)phenyl)pyrimidin-2-yl)-4-methylthiazol-2-amine], the negative logarithm of the IC50 (pIC50) is 9.10.

As to `CC(C)C[C@](C)(N)COc1ccc(-c2ccnc(NC3CCCC3)n2)cc1C(F)(F)F` [Example 377, (S)-4-(4-((2-amino-2,4-dimethylpentyl)oxy)-3-(trifluoromethyl)phenyl)-N-cyclopentylpyrimidin-2-amine], the negative-log IC50 (pIC50) is 8.13.

Regarding `Cc1csc(Nc2nccc(-c3ccc(OC[C@@](C)(N)CC(C)C)c(C#N)c3)n2)n1` [Example 380, (S)-2-((2-amino-2,4-dimethylpentyl)oxy)-5-(2-((4-methylthiazol-2-yl)amino)pyrimidin-4-yl)benzonitrile], the pIC50 is 9.00.

In the case of `Cc1csc(Nc2nccc(-c3ccc(OC[C@@](C)(N)CC(C)C)c(C)c3)n2)n1` [Example 381, (S)—N-(4-(4-((2-amino-2,4-dimethylpentyl)oxy)-3-methylphenyl)pyrimidin-2-yl)-4-methylthiazol-2-amine], the pIC50 is 8.82.

Consider `CC(C)C[C@](C)(N)COc1ccc(-c2ccnc(NC(=O)C3CC3)c2)cc1C(F)(F)F` [Example 389, (S)—N-(4-(4-((2-amino-2,4-dimethylpentyl)oxy)-3-(trifluoromethyl)phenyl)pyridin-2-yl)cyclopropanecarboxamide], for which the pIC50 is 9.52.

Consider `CC(C)C[C@](C)(N)COc1ccc(-c2ccnc(NC(=O)C3CCC3)c2)cc1C(F)(F)F` [Example 390, (S)—N-(4-(4-((2-amino-2,4-dimethylpentyl)oxy)-3-(trifluoromethyl)phenyl)pyridin-2-yl)cyclobutanecarboxamide], for which the negative-log IC50 (pIC50) was 9.30.

For the compound `CC(C)C[C@](C)(N)COc1ccc(-c2ccnc(NC(=O)C3CCCC3)c2)cc1C(F)(F)F` [Example 391, (S)—N-(4-(4-((2-amino-2,4-dimethylpentyl)oxy)-3-(trifluoromethyl)phenyl)pyridin-2-yl)cyclopentanecarboxamide], the pIC50 was 9.30.

As to `CC(C)C[C@](C)(N)COc1ccc(-c2ccnc(NC(=O)CC3CCCC3)c2)cc1C(F)(F)F` [Example 392, (S)—N-(4-(4-((2-amino-2,4-dimethylpentyl)oxy)-3-(trifluoromethyl)phenyl)pyridin-2-yl)-2-cyclopentylacetamide], the pIC50 was 9.15.

As to `CC(C)C[C@](C)(N)COc1ccc(-c2ccnc(NC(=O)CCC3CCCC3)c2)cc1C(F)(F)F` [Example 393, (S)—N-(4-(4-((2-amino-2,4-dimethylpentyl)oxy)-3-(trifluoromethyl)phenyl)pyridin-2-yl)-3-cyclopentylpropanamide], the pIC50 is 8.14.

For `CC(C)C[C@](C)(N)COc1ccc(-c2ccnc(NC(=O)CC3CCCCC3)c2)cc1C(F)(F)F` [Example 394, (S)—N-(4-(4-((2-amino-2,4-dimethylpentyl)oxy)-3-(trifluoromethyl)phenyl)pyridin-2-yl)-2-cyclohexylacetamide], the pIC50 was 8.70.

`CC(C)C[C@](C)(N)COc1ccc(-c2ccnc(NC(=O)C3CCCO3)c2)cc1C(F)(F)F` (stereo partly drawn) [Example 398, N-(4-(4-(((S)-2-amino-2,4-dimethylpentyl)oxy)-3-(trifluoromethyl)phenyl)pyridin-2-yl)tetrahydrofuran-2-carboxamide]: the negative-log IC50 (pIC50) is 9.00.

Turning to `CC(C)C[C@](C)(N)COc1ccc(-c2ccnc(NC(=O)CC3CCCCCC3)c2)cc1C(F)(F)F` [Example 399, (S)—N-(4-(4-((2-amino-2,4-dimethylpentyl)oxy)-3-(trifluoromethyl)phenyl)pyridin-2-yl)-2-cycloheptylacetamide], the negative-log IC50 (pIC50) was 8.23.
